Experimental data reported in patent publication US5371102A, “Compositions and methods of inhibiting thyroid activity” (priority 1993, dated 1994).
Entries after “also recorded” stand apart in the source; their conditions may differ. Like-named read-outs stand apart in the source and are kept apart here.

What was measured:
TPX [1] = target: T1, TPX (Sus scrofa, UniProt P09933); assay: TPX-catalyzed iodide oxidation (triiodide formation), spectrophotometric; format: biochemical, hog; conditions: TPX, H2O2 and I-
T1 sequence (P09933 15-926): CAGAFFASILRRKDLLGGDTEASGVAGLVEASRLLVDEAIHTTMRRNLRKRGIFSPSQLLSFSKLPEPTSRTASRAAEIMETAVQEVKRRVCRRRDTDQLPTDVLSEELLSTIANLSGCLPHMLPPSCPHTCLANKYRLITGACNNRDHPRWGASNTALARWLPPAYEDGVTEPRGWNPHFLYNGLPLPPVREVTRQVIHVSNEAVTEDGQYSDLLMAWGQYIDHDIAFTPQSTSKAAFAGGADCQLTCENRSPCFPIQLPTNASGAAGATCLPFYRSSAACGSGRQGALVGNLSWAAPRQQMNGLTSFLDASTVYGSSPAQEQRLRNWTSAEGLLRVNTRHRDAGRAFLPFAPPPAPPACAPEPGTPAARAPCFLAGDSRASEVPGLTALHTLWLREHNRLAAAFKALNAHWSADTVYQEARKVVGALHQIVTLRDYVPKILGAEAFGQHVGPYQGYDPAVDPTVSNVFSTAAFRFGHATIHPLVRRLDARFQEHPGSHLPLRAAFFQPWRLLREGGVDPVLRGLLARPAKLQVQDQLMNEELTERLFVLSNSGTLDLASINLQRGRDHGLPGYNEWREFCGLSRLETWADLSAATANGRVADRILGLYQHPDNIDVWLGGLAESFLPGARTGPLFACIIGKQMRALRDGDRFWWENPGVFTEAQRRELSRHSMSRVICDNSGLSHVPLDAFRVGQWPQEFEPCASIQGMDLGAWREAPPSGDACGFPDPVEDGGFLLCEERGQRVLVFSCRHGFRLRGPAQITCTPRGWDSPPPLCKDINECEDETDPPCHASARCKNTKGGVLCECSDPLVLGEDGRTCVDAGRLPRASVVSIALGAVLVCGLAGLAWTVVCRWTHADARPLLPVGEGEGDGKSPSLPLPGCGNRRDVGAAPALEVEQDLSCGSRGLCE
Source text: (§1) Materials used in the examples below were obtained from the following sources. Bovine LPX, bovine liver catalase, glucose oxidase, 30% hydrogen peroxide, glucose, guaiacol, ABTS and deuterium oxide were purchased from Sigma Chemical Company. Selenium dioxide, MBI ^13 CH3 I and PBA were purchased from Aldrich Chemical Company and PBA was purified as previously described by Fieset et al., Reagents for Organic Synthesis, Vol. I, pp.135-139, John Wiley and Sons, N.Y. (1967). LPX purity was checked by PAGE, as described by Doerge, D.R., et al. in, Biochem. Pharmacol., Vol.36, pp.972-974 (1986). TPX was purified from hog thyroids obtained from a local slaughterhouse by published procedures. Doerge & Takazowa, Chemical Research in Toxicology, Vol. 3, pp. 98-101 (1990). TPX purity was determined by LC and its concentration determined spectophotometrically. Hydroperoxide concentrations were determined by iodometric titration, as described by Kolthoff, et al., in "Quantitative Chemical Analysis", Macmillan, London, pp.842-860 (1969). MMBI, and BI were synthesized by published procedures as described by Doerge, D.R., Biochem, Vol. 27, pp. 3697-3700 (1988) and were recrystallized from aqueous ethanol. MeBI was purified by distillation and DMeBI^+ was synthesized and purified by recrystallization from ethyl acetate/methanol. 1-^13 C-MMBI was synthesized from ^13 CH3 I according to the procedure disclosed by Doerge, D.R., in, J. Lab. Comp. and Radiopharm., Vol.25, pp.985-990 (1988). PPHP and PPA were prepared, purified and analyzed as previously described by Doerge, Biochem, Vol.27, p.11 (1988). The methyl ester of 1-methyl-benzimidazole-2-sulfinic acid was prepared by addition of hydrogen peroxide (5 equivalents of a 10 M solution) to MMBI (0.1 M) in methanol. The products, MeBI and the ester, were obtained following preparative TLC on silica (Uniplate, Analtech Co., Newark, DL) using 5% methanol/chloroform as eluant. […]
1,3-diacetyl MBI (AczMBI) was synthesized according to the method published by Doerge et al., Syn. […] Varying quantities of Ac2 MBI were incubated with TPX, H2 O2, and I^-. […]

LPX and TPX [2] = assay: suicide inhibition of peroxidases (summary statements); format: biochemical; conditions: for suicide inhibition: summary of own examples
LPX [3] = conditions: cited from earlier work
TPX [4] = conditions: cited from earlier work
[5] = kinetics of thione oxygenation by hydrogen peroxide/TFA; format: physicochemical; conditions: thione 25 μM, H2O2 34 mM, TFA 163 mM in methanol, 25° C.; relative to DMMBI
Description: The kinetics of thione oxygenation were determined for MBI, MMBI and DMMBI. Oxygenation by hydrogen peroxide/TFA was measured spectrophotometrically (305 nm) at 25° C. by addition of thione (final concentration 25 μM) to hydrogen peroxide (34 mM) and TFA (163 mM) in methanol.

TPX [6] = target: T1, TPX; assay: TPX inactivation; format: biochemical, hog; conditions: presence of hydrogen peroxide
Source text: (§2) Materials used in the examples below were obtained from the following sources. Bovine LPX, bovine liver catalase, glucose oxidase, 30% hydrogen peroxide, glucose, guaiacol, ABTS and deuterium oxide were purchased from Sigma Chemical Company. Selenium dioxide, MBI ^13 CH3 I and PBA were purchased from Aldrich Chemical Company and PBA was purified as previously described by Fieset et al., Reagents for Organic Synthesis, Vol. I, pp.135-139, John Wiley and Sons, N.Y. (1967). LPX purity was checked by PAGE, as described by Doerge, D.R., et al. in, Biochem. Pharmacol., Vol.36, pp.972-974 (1986). TPX was purified from hog thyroids obtained from a local slaughterhouse by published procedures. Doerge & Takazowa, Chemical Research in Toxicology, Vol. 3, pp. 98-101 (1990). TPX purity was determined by LC and its concentration determined spectophotometrically. Hydroperoxide concentrations were determined by iodometric titration, as described by Kolthoff, et al., in "Quantitative Chemical Analysis", Macmillan, London, pp.842-860 (1969). MMBI, and BI were synthesized by published procedures as described by Doerge, D.R., Biochem, Vol. 27, pp. 3697-3700 (1988) and were recrystallized from aqueous ethanol. MeBI was purified by distillation and DMeBI^+ was synthesized and purified by recrystallization from ethyl acetate/methanol. 1-^13 C-MMBI was synthesized from ^13 CH3 I according to the procedure disclosed by Doerge, D.R., in, J. Lab. Comp. and Radiopharm., Vol.25, pp.985-990 (1988). PPHP and PPA were prepared, purified and analyzed as previously described by Doerge, Biochem, Vol.27, p.11 (1988). The methyl ester of 1-methyl-benzimidazole-2-sulfinic acid was prepared by addition of hydrogen peroxide (5 equivalents of a 10 M solution) to MMBI (0.1 M) in methanol. The products, MeBI and the ester, were obtained following preparative TLC on silica (Uniplate, Analtech Co., Newark, DL) using 5% methanol/chloroform as eluant.
DMMBI was synthesized according to a published method. Duffin et al., J. Chem. Soc., Part II, pp.364-365 (1956). Samples including TPX, H2 O2, and I^- were incubated with and without DMMBI. Triiodide formation was observed spectrophotometrically with respect to time.

[7] = chemical oxidation stoichiometry of thiones; format: physicochemical; conditions: for moles of oxidant required for total reaction: PBA, FIG. 4
Description: Oxidation stoichiometries were determined for the thione compounds MBI, MMBI and DMMBI by incubating the thiones with varying amounts of PBA (0-250μM). The rapid reaction (t1/2 <10 s at 25° C.) of benzimidazole-2-thiones with PBA in methanol provided a convenient method for determining oxidation stoichiometry.
(§3) Oxidation stoichiometries were determined spectrophoto, metrically, using a Hewlett Packard 8452A diode array spectrophotometer, by measuring thione concentration at 305 nm as a function of PBA concentration. Hydroperoxide content was determined iodometrically. Stoichiometries of substrate consumption/product formation were also determined by addition of limiting amounts of PBA to 100 μM MBI or MMBI in 50% methanol/pH 7 phosphate. The disappearance of thione and the production of BI, MeBI and bisulfite ion was determined after one hour at 25° C. The production of bisulfite ion was measured […]. The production of sulfate ion was determined by ion chromatography using a AS4A column (Dionex Co., Sunnyvale, CA) with a Dionex Gradient Pump Module and a Dionex CDM II conductivity detector equipped with an AMMS suppressor using 3 mM carbonate/bicarbonate buffer pH 10 as eluant at 2.0 ml/min. Reaction products were also monitored by ^1 H NMR performed at 300 MHz using a Nicolet NT300 or General Electric QE300 spectrometer DSS as a reference.

[8] = thione reaction with PBA in aqueous buffered methanol, product ratios; format: physicochemical; conditions: thione 100 μM, PBA 0-200 μM
Description: as §3
The reaction of MBI and MMBI with PBA was also examined in aqueous buffered methanol. Thione (100 μM) was incubated with varying concentrations of PBA (0-200 μM). Reactant and product quantities were determined by LC as described in example 1. The ratios of product formation to thione consumption were calculated, and are reported below in Table 1. The values are averages of two slope determinations, i.e., moles of product formed or reactant consumed vs. moles of oxidant added, each determined from at least five data points.

TPX [9] = target: T1, TPX; assay: covalent binding to TPX in the presence of H2O2; parameters: species or system hog
Source text: as §1, with “MeBI was purified by distillation and DMeBI^+ was synthesized and purified by recrystallization from ethyl acetate/methanol. 1-^13 C-MMBI was synthesized from ^13 CH3 I according to the procedure disclosed by Doerge, D.R., in, J. Lab. Comp. and Radiopharm., Vol.25, pp.985-990 (1988).” left out, “(1988).” for “(1988). The methyl ester of 1-methyl-benzimidazole-2-sulfinic acid was prepared by addition of hydrogen peroxide (5 equivalents of a 10 M solution) to MMBI (0.1 M) in methanol. The products, MeBI and the ester, were obtained following preparative TLC on silica (Uniplate, Analtech Co., Newark, DL) using 5% methanol/chloroform as eluant.”

LPX [10] = target: T2, LPX (Bos taurus, UniProt P80025); assay: LPX-mediated covalent binding of labelled thiocarbamides to LPX; parameters: species or system bovine; conditions: +H2O2 vs. +H2O2 +KI; 14C- and 35S-labelled
T2 construct: purchased Sigma Chemical Company
Source text: as §2
LPX-mediated covalent binding of ^14 C- and ^35 S-labelled thiocarbamides to LPX under iodide-dependent and -independent conditions was measured.

LPX [11] = target: T2, LPX; assay: LPX suicide inactivation kinetics; format: biochemical, bovine
Source text: as §2
Inhibition of LPX activity by thiones was determined from the kinetics of iodide ion, guaiacol or ABTS oxidation assays conducted at 25° C. Kinetic parameters of suicide inactivation were determined as previously described. Doerge, Biochem. Vol.27, pp.3697-3700 (1988).

LPX and TPX [12] = conditions: currently used drugs, background; cited from earlier work
[13] = cited from earlier work

CC(=O)n1c(=S)n(C(C)=O)c2ccccc21 [Ac2 MBI, 1,3-diacetylbenzimidazole-2-thione]
effect on triiodide formation (TPX [1]): exhibits similar inhibition of triiodide formation as was observed with DMMBI
selectivity for iodide ion oxidation (LPX and TPX [2]; alternate substrate mechanism): block only reactions involving iodide ion oxidation
suicide inhibition (LPX and TPX [2]): not suicide inhibitors

S=C1NCCN1 [ETU, imidazolidine-2-thione]
inhibition of LPX-catalyzed iodination (LPX [3]): inhibits TPX- and LPX-catalyzed iodination reactions
inhibition of TPX-catalyzed iodination (TPX [4]): inhibits TPX- and LPX-catalyzed iodination reactions

Sc1nc2ccccc2[nH]1 [MBI, benzimidazole-2-thione]
relative rate of oxygenation [5]: 2.3
TPX inactivation (TPX [6]): rapid, irreversible loss of LPX and TPX activity; also recorded: cause rapid, irreversible enzyme inactivation
moles of oxidant required for total reaction [7]: two
PBA/thione [8]: 1.89
benzimidazole/thione [8]: 0.89
bisulfite/thione [8]: 0.72
covalent binding to TPX (TPX [9]): bind covalently to LPX and TPX
covalent binding to LPX (LPX [10]): become covalently bound to LPX
partition ratio (LPX inactivation) (LPX [11]; 25° C.): approximately 3
LPX inactivation / loss of LPX activity (LPX [11]; presence of hydrogen peroxide): rapid, irreversible loss of LPX and TPX activity; also recorded: cause rapid, irreversible enzyme inactivation
KI (inactivation) (LPX [11]; read-out: Ki (LPX inactivation); 25° C.): 0.1 nM
suicide inhibition (LPX and TPX [2]): suicide inhibitors

Cn1c(S)nc2ccccc21 [MMBI, 1-methylbenzimidazole-2-thione]
relative rate of oxygenation [5]: 1.3
TPX inactivation (TPX [6]): rapid, irreversible loss of LPX and TPX activity; also recorded: cause rapid, irreversible enzyme inactivation
moles of oxidant required for total reaction [7]: two
equivalents of hydroperoxide required per mole of thione ([7]; hydroperoxides): 2 equivalents
PBA/thione [8]: 1.98
benzimidazole/thione [8]: 0.87
bisulfite/thione [8]: 0.72
covalent binding to TPX (TPX [9]): bind covalently to LPX and TPX
covalent binding to LPX (LPX [10]): become covalently bound to LPX
partition ratio (LPX inactivation) (LPX [11]; 25° C.): ~35
KI (inactivation) (LPX [11]; 25° C.; read-out: Ki (LPX inactivation)): 274 nM
LPX inactivation / loss of LPX activity (LPX [11]; presence of hydrogen peroxide): rapid, irreversible loss of LPX and TPX activity; also recorded: cause rapid, irreversible enzyme inactivation
suicide inhibition (LPX and TPX [2]): suicide inhibitors

Cn1cc[nH]c1=S [MMI, 1-methylimidazole-2-thione]
suicide inhibition (LPX and TPX [12]): suicide inhibitors

CCOC(=O)n1ccn(C)c1=S [carbimazole, 1-carboxyethyl-3-methylimidazole-2-thione]
in vivo stability / conversion [13]: labile in vivo and is rapidly converted to methimazole

CCCc1cc(=O)[nH]c(=S)[nH]1 [propylthiouracil]
suicide inhibition (LPX and TPX [12]): suicide inhibitors
